Where “and” joins values, the source holds several entries; their conditions need not be identical. Equal values may be shown once. Read-outs that look alike come from different tables or passages of the source.
Key:
BChE [1] = molecular target: T1, BChE (Equus caballus, UniProt P81908); test: biochemical; type: biochemical; details: in vitro, triplicates
BChE [2] = molecular target: T1, BChE; test: Enzyme kinetics study (Lineweaver-Burk plots) of 8c on BChE; type: biochemical
Protocol: The inhibition type was determined by analyzing the Lineweaver–Burk plots.
All common chemicals were purchased from commercial sources and used without further purification. The water used was distilled water. Reaction progress was monitored using analytical thin layer chromatography (TLC, detected by UV light 254 nm) on precoated silica gel HSGF254 plates (Qingdao Haiyang Chemical Plant, China). Column chromatography was performed on silica gel (200 ~ 300 mesh; Qingdao Dingkang Chemical Inc.). […] Proton coupling patterns are described as singlet (s), doublet (d), double doublet (dd), triplet (t), and multiplet (m). ESI–MS date were recorded on a Waters Quattro Premier XE triquadrupole mass spectrometer (Waters Corporation, USA), while ESI-HRMS date were recorded on a Q-TOF Priemier mass spectrometer (Micromass, Manchester, UK). The enzyme kinetic assay was performed on an EnSpire Enzyme Marker (Thermos Fisher, USA).
Kinetic studies were performed in same method as described in BChE inhibition assays. The substrate (BTCI) at five concentrations (from 0.05 to 0.8 mM) was determined for 8c at different […] to reveal its inhibition model, and reciprocal plots of 1/V versus 1/[S]. The kinetic parameters and apparent inhibition constants were calculated by the “Enzyme kinetics” module of Prism.

BChE [3] = molecular target: T1, BChE; design: method as in PMID 33759552; details: in vitro; found in previous study; read-out: BChE IC50 of starting compound; cited from earlier work
BChE [4] = molecular target: T1, BChE; design: method as in PMID 33759552; details: previous study; cited from earlier work
[5] = read-out: BChE: IC50 (μM) ± SEM
[6] = BTCI substrate 0.05 to 0.8 mM, Lineweaver-Burk

T1 sequence (P81908 whole entry): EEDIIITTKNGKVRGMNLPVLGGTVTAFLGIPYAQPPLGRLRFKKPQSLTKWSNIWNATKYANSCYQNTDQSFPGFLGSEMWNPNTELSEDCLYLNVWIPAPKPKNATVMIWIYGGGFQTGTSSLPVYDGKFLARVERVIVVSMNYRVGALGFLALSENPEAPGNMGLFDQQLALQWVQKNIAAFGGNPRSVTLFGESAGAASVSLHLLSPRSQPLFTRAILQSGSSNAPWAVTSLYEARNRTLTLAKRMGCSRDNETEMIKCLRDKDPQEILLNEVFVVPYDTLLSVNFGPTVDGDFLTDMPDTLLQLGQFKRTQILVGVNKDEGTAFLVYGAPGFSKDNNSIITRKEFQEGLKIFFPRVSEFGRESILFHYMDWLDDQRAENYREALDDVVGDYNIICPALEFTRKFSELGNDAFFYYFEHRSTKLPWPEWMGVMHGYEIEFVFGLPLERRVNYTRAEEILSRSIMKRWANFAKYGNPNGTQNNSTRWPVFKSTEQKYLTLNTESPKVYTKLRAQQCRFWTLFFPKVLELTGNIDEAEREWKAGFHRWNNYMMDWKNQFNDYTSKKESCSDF

Row | SMILES | IC50 (BChE [1]; [5]) | further results
1 | CN(CC(=O)Nc1ccccc1F)C(=O)C(=O)c1c[nH]c2ccccc12 [8a, N-(2-((2-fluorophenyl)amino)-2-oxoethyl)-2-(1H-indol-3-yl)-N-methyl-2-oxoacetamide] | > 50 µM | 
2 | COc1ccc(NC(=O)CN(C)C(=O)C(=O)c2c[nH]c3ccccc23)c(C)c1 [8b, 2-(1H-indol-3-yl)-N-(2-((4-methoxy-2-methylphenyl)amino)-2-oxoethyl)-N-methyl-2-oxoacetamide] | > 50 µM | 
3 | Cc1cc(C)c(NC(=O)CN(C)C(=O)C(=O)c2c[nH]c3ccccc23)c(C)c1 [8c, 2-(1H-indol-3-yl)-N-(2-(mesitylamino)-2-oxoethyl)-N-methyl-2-oxoacetamide] | < 50 µM and 3.95 µM and 3.94 µM | Ki (BChE [2]; [6]): 3.27 µM; Vmax (BChE [2]; [6]): 105.26; inhibition type (BChE [2]; Lineweaver-Burk plot): mixed-type
4 | Cc1ccccc1NC(=O)CN(C)C(=O)C(=O)c1c[nH]c2ccccc12 [8d, 2-(1H-indol-3-yl)-N-methyl-2-oxo-N-(2-oxo-2-(o-tolylamino)ethyl)acetamide] | < 50 µM and 19.6 µM | 
5 | COc1ccccc1NC(=O)CNC(=O)C(=O)c1c[nH]c2ccccc12 [13a, 2-(1H-indol-3-yl)-N-(2-((2-methoxyphenyl)amino)-2-oxoethyl)-2-oxoacetamide] | > 50 µM | 
6 | COc1ccc(NC(=O)CNC(=O)C(=O)c2c[nH]c3ccccc23)cc1 [13b, 2-(1H-indol-3-yl)-N-(2-((4-methoxyphenyl)amino)-2-oxoethyl)-2-oxoacetamide] | > 50 µM | 
7 | Cc1ccc(NC(=O)CNC(=O)C(=O)c2c[nH]c3ccccc23)cc1C [13c, N-(2-((3,4-dimethylphenyl)amino)-2-oxoethyl)-2-(1H-indol-3-yl)-2-oxoacetamide] | > 50 µM | 
8 | CCCCc1ccc(NC(=O)CNC(=O)C(=O)c2c[nH]c3ccccc23)cc1 [13d, N-(2-((4-butylphenyl)amino)-2-oxoethyl)-2-(1H-indol-3-yl)-2-oxoacetamide] | > 50 µM | 
9 | Cc1cc(C)c(NC(=O)CNC(=O)C(=O)c2c[nH]c3ccccc23)c(C)c1 [13e, 2-(1H-indol-3-yl)-N-(2-(mesitylamino)-2-oxoethyl)-2-oxoacetamide] | > 50 µM | 
10 | Cc1cc(C)cc(NC(=O)CNC(=O)C(=O)c2c[nH]c3ccccc23)c1 [13f, N-(2-((3,5-dimethylphenyl)amino)-2-oxoethyl)-2-(1H-indol-3-yl)-2-oxoacetamide] | > 50 µM | 
11 | Cc1ccccc1NC(=O)CNC(=O)C(=O)c1c[nH]c2ccccc12 [13g, 2-(1H-indol-3-yl)-2-oxo-N-(2-oxo-2-(o-tolylamino)ethyl)acetamide] | > 50 µM | 
12 | Cc1ccc(NC(=O)CNC(=O)C(=O)c2c[nH]c3ccccc23)cc1Cl [13h, N-(2-((3-chloro-4-methylphenyl)amino)-2-oxoethyl)-2-(1H-indol-3-yl)-2-oxoacetamide] | > 50 µM | 
13 | COc1ccc(NC(=O)CNC(=O)C(=O)c2c[nH]c3ccccc23)c(OC)c1 [13i, N-(2-((2,4-dimethoxyphenyl)amino)-2-oxoethyl)-2-(1H-indol-3-yl)-2-oxoacetamide] | > 50 µM | 
14 | COc1cccc(NC(=O)CNC(=O)C(=O)c2c[nH]c3ccccc23)c1 [13j, 2-(1H-indol-3-yl)-N-(2-((3-methoxyphenyl)amino)-2-oxoethyl)-2-oxoacetamide] | > 50 µM | 
15 | O=C(CNC(=O)C(=O)c1c[nH]c2ccccc12)Nc1ccccc1F [13k, N-(2-((2-fluorophenyl)amino)-2-oxoethyl)-2-(1H-indol-3-yl)-2-oxoacetamide] | > 50 µM | 
16 | Cc1cccc(NC(=O)OCCN(C)C(=O)C(=O)c2c[nH]c3ccccc23)c1 [17a, 2-(2-(1H-indol-3-yl)-N-methyl-2-oxoacetamido)ethyl m-tolylcarbamate] |  | IC50 (BChE [1]; BChE: IC50 (μM) ± SEM): > 50 µM
17 | CCc1ccc(NC(=O)OCCN(C)C(=O)C(=O)c2c[nH]c3ccccc23)cc1 [17b, 2-(2-(1H-indol-3-yl)-N-methyl-2-oxoacetamido)ethyl (4-ethylphenyl)carbamate] |  | IC50 (BChE [1]; BChE: IC50 (μM) ± SEM): > 50 µM
18 | Cc1ccccc1NC(=O)OCCN(C)C(=O)C(=O)c1c[nH]c2ccccc12 [17c, 2-(2-(1H-indol-3-yl)-N-methyl-2-oxoacetamido)ethyl o-tolylcarbamate] |  | IC50 (BChE [1]; BChE: IC50 (μM) ± SEM): > 50 µM
19 | CN(CCOC(=O)Nc1cccc(Cl)c1)C(=O)C(=O)c1c[nH]c2ccccc12 [17d, 2-(2-(1H-indol-3-yl)-N-methyl-2-oxoacetamido)ethyl (3-chlorophenyl)carbamate] |  | IC50 (BChE [1]; BChE: IC50 (μM) ± SEM): > 50 µM
20 | COc1cccc(NC(=O)CN(C)C(C)C(=O)c2c[nH]c3ccccc23)c1 (stereo not drawn) [compound 970180] |  | IC50 (BChE [3]): 4.24 ± 0.16 µM; inhibition type (BChE [4]): mixed-type

Source: publication PMC10039877 (Scientific Reports, 2023)
